This passage reports Ki results from BindingDB's records for doi:10.1124/jpet.104.066761 (National Institutes of Health, 2004).

Assay [1] addresses Gastrin-releasing peptide receptor (Homo sapiens) (UniProt P30550).
In the next assay the target is Neuromedin-B receptor (Homo sapiens, UniProt P28336).
In assay [2] the target is T1, Bombesin receptor subtype-3 (Homo sapiens, UniProt P32247).
T1 sequence (P32247 whole entry): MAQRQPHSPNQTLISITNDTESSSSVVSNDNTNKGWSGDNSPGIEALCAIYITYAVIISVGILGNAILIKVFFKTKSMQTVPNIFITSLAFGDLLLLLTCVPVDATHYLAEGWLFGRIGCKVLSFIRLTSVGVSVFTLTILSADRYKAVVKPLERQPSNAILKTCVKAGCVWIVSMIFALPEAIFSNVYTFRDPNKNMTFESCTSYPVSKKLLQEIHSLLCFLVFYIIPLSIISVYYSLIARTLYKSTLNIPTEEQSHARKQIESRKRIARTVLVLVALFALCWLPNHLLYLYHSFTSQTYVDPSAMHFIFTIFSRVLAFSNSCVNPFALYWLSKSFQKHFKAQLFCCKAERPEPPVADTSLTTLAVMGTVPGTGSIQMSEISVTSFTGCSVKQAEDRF

Assay [3] addresses Gastrin-releasing peptide receptor (Homo sapiens) (UniProt P30550). This is another data set of the same source.

Square brackets hold non-standard residues; d marks the D form. Peptide text beside a SMILES is read from it. Nle = CCCC[C@H](N)C(=O)O; βAla = NCCC(=O)O

Gastrin-releasing peptide receptor (Homo sapiens), sequence (P30550 whole entry, looked up): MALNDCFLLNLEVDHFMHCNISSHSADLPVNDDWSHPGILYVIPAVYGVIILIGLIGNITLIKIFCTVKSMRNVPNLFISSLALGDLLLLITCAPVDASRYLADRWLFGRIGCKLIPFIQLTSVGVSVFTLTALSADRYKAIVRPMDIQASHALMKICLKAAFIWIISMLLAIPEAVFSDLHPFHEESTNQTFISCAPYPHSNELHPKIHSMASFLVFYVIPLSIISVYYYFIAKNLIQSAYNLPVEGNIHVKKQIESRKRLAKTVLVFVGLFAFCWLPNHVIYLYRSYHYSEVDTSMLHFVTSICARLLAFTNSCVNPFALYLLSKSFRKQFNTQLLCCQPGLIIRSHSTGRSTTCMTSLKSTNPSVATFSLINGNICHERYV
Neuromedin-B receptor, sequence (P28336 whole entry): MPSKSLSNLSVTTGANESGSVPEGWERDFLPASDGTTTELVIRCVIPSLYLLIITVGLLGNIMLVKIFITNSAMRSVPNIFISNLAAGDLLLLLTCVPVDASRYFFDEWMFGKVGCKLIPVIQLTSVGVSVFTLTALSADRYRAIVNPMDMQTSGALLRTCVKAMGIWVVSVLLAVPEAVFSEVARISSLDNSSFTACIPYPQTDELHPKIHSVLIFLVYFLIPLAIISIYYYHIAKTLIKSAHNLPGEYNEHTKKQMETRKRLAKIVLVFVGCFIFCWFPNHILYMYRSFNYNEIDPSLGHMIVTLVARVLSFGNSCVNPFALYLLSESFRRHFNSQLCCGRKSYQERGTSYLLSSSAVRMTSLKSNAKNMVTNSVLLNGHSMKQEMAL

As for `CCCC[C@H](NC(=O)[C@H](Cc1ccccc1)NC(=O)[C@H](Cc1cnc[nH]1)NC(=O)C[C@H](NC(=O)[C@@H](NC(=O)[C@H](C)NC(=O)[C@H](Cc1c[nH]c2ccccc12)NC(=O)[C@H](CCC(N)=O)NC(=O)[C@H](N)Cc1ccc(O)cc1)C(C)C)c1ccccc1)C(N)=O` [CAS_0], in assay [1], the affinity corresponds to a Ki of 110 nM.

As for `CCCC[C@H](NC(=O)[C@H](Cc1ccccc1)NC(=O)[C@H](Cc1cnc[nH]1)NC(=O)C[C@@H](NC(=O)[C@@H](NC(=O)[C@H](C)NC(=O)[C@H](Cc1c[nH]c2ccccc12)NC(=O)[C@H](CCC(N)=O)NC(=O)[C@H](N)Cc1ccc(O)cc1)C(C)C)c1cccc(Cl)c1)C(N)=O` [NSC_0], the Ki in assay [1] amounted to 110 nM; at Neuromedin-B receptor it was 831 nM; in assay [2] it was 15.8 nM.

Take `CCCC[C@H](NC(=O)[C@H](Cc1ccccc1)NC(=O)[C@H](Cc1c[nH]cn1)NC(=O)C[C@@H](NC(=O)[C@@H](NC(=O)[C@H](C)NC(=O)[C@H](Cc1c[nH]c2ccccc12)NC(=O)[C@H](CCC(N)=O)NC(=O)[C@H](N)Cc1ccc(O)cc1)C(C)C)c1ccccc1)C(N)=O` [NSC_0]: the figures for the Ki (in assay [1]; on Neuromedin-B receptor; in assay [2]) were 151 nM, 2400 nM and 2.8 nM, respectively.

Take `CCCC[C@H](NC(=O)[C@H](Cc1ccccc1)NC(=O)[C@H](Cc1cnc[nH]1)NC(=O)C[C@H](NC(=O)[C@@H](NC(=O)[C@H](C)NC(=O)[C@H](Cc1c[nH]c2ccccc12)NC(=O)[C@H](CCC(N)=O)NC(=O)[C@H](N)Cc1ccc(O)cc1)C(C)C)c1ccc(Cl)cc1)C(N)=O` [NSC_0]: the Ki in assay [1] was determined as 741 nM; at Neuromedin-B receptor, 1950 nM; in assay [2], 776 nM.

`CC(C)[C@H](NC(=O)[C@H](C)NC(=O)[C@H](Cc1c[nH]c2ccccc12)NC(=O)[C@H](CCC(N)=O)NC(=O)[C@H](N)Cc1ccc(O)cc1)C(=O)NCCC(=O)N[C@@H](Cc1cnc[nH]1)C(=O)N[C@@H](Cc1ccccc1)C(=O)NC[C@H](N)C(N)=O` [NSC_0]: the Ki in assay [1] was 85 nM; on Neuromedin-B receptor, above 10000 nM; in assay [2] it was 2400 nM.

As for `CCCC[C@H](NC(=O)[C@H](Cc1ccccc1)NC(=O)[C@H](Cc1cnc[nH]1)NC(=O)[C@H](CNC(=O)[C@@H](NC(=O)[C@H](C)NC(=O)[C@H](Cc1c[nH]c2ccccc12)NC(=O)[C@H](CCC(N)=O)NC(=O)[C@H](N)Cc1ccc(O)cc1)C(C)C)NC(C)=O)C(N)=O` [NSC_0], the Ki stood at 1.7 nM in assay [1], 89 nM at Neuromedin-B receptor and 15.8 nM in assay [2].

In the case of `CCCC[C@H](NC(=O)[C@H](Cc1ccccc1)NC(=O)[C@H](Cc1cnc[nH]1)NC(=O)C[C@H](NC(=O)[C@@H](NC(=O)[C@H](C)NC(=O)[C@H](Cc1c[nH]c2ccccc12)NC(=O)[C@H](CCC(N)=O)NC(=O)[C@H](N)Cc1ccc(O)cc1)C(C)C)C(=O)NCc1ccccc1)C(N)=O` [NSC_0], the Ki in assay [3] is 397 nM; at Neuromedin-B receptor, 646 nM; in assay [2], 708 nM.

As to `CCCC[C@H](NC(=O)[C@H](Cc1ccccc1)NC(=O)[C@H](Cc1cnc[nH]1)NC(=O)C[C@H](NC(=O)[C@@H](NC(=O)[C@H](C)NC(=O)[C@H](Cc1c[nH]c2ccccc12)NC(=O)[C@H](CCC(N)=O)NC(=O)[C@H](N)Cc1ccc(O)cc1)C(C)C)c1cccc(Cl)c1)C(N)=O` [NSC_0], the figures for the Ki (in assay [1]; at Neuromedin-B receptor; in assay [2]) were 2510 nM, above 10000 nM and 107 nM, respectively.

Regarding `CCCC[C@H](NC(=O)[C@H](Cc1ccccc1)NC(=O)[C@H](Cc1cnc[nH]1)NC(=O)C[C@H](NC(=O)[C@@H](NC(=O)[C@H](C)NC(=O)[C@H](Cc1c[nH]c2ccccc12)NC(=O)[C@H](CCC(N)=O)NC(=O)[C@H](N)Cc1ccc(O)cc1)C(C)C)C(=O)O)C(N)=O` [NSC_0], the Ki came to 396 nM in assay [1], 427 nM on Neuromedin-B receptor and 490 nM in assay [2].

For the compound `CCCC[C@H](NC(=O)[C@H](Cc1ccccc1)NC(=O)[C@H](Cc1cnc[nH]1)NC(=O)C[C@H](NC(=O)[C@@H](NC(=O)[C@H](C)NC(=O)[C@H](Cc1c[nH]c2ccccc12)NC(=O)[C@H](CCC(N)=O)NC(=O)[C@H](N)Cc1ccc(O)cc1)C(C)C)c1ccccc1Cl)C(N)=O` [NSC_0], the figures for the Ki (in assay [1]; on Neuromedin-B receptor; in assay [2]) were 398 nM, 5890 nM and 85 nM, respectively.

With `CCCC[C@H](NC(=O)[C@H](Cc1ccccc1)NC(=O)[C@H](Cc1cnc[nH]1)NC(=O)[C@H](CNC(=O)[C@@H](NC(=O)[C@H](C)NC(=O)[C@H](Cc1c[nH]c2ccccc12)NC(=O)[C@H](CCC(N)=O)NC(=O)[C@H](N)Cc1ccc(O)cc1)C(C)C)NC(=O)c1ccccc1)C(N)=O` [NSC_0], the Ki in assay [1] worked out at 3.1 nM; on Neuromedin-B receptor, 55 nM; in assay [2], 12.3 nM.

`CCCC[C@H](NC(=O)[C@H](Cc1ccccc1)NC(=O)[C@H](Cc1cnc[nH]1)NC(=O)C[C@@H](NC(=O)[C@@H](NC(=O)[C@H](C)NC(=O)[C@H](Cc1c[nH]c2ccccc12)NC(=O)[C@H](CCC(N)=O)NC(=O)[C@H](N)Cc1ccc(O)cc1)C(C)C)c1ccccc1Cl)C(N)=O` [NSC_0]: the Ki in assay [1] was found to be 229 nM; on Neuromedin-B receptor, 6920 nM; in assay [2], 24 nM.

In the case of `CSCC[C@H](NC(=O)[C@H](Cc1ccccc1)NC(=O)[C@H](Cc1cnc[nH]1)NC(=O)CNC(=O)[C@@H](NC(=O)[C@H](C)NC(=O)[C@H](Cc1c[nH]c2ccccc12)NC(=O)[C@H](CC(C)C)NC(=O)[C@H](CC(N)=O)NC(=O)CN)[C@@H](C)O)C(N)=O` [NMB], the Ki was 0.55 nM at Neuromedin-B receptor and above 10000 nM in assay [2].

Take `CCCC[C@H](NC(=O)[C@H](Cc1ccccc1)NC(=O)[C@H](Cc1cnc[nH]1)NC(=O)[C@@H](N)CNC(=O)[C@@H](NC(=O)[C@H](C)NC(=O)[C@H](Cc1c[nH]c2ccccc12)NC(=O)[C@H](CCC(N)=O)NC(=O)[C@H](N)Cc1ccc(O)cc1)C(C)C)C(N)=O` [NSC_0]: the results for the Ki (in assay [1]; on Neuromedin-B receptor; in assay [2]) were 1 nM, 43 nM and 2.3 nM, respectively.

Consider `CCCC[C@H](NC(=O)[C@H](Cc1ccccc1)NC(=O)[C@H](Cc1cnc[nH]1)NC(=O)CCNC(=O)[C@@H](NC(=O)[C@H](C)NC(=O)[C@H](Cc1c[nH]c2ccccc12)NC(=O)[C@H](CCC(N)=O)NC(=O)[C@H](N)Cc1ccc(O)cc1)C(C)C)C(N)=O` [NSC_0] (H-[dY]QWAV[βAla]HF[Nle]-NH2), for which the Ki at Neuromedin-B receptor was 5.9 nM; in assay [2] it was 0.82 nM.

In the case of `CCCC[C@H](NC(=O)[C@H](Cc1ccccc1)NC(=O)[C@H](Cc1c[nH]cn1)NC(=O)C[C@@H](NC(=O)[C@@H](NC(=O)[C@H](C)NC(=O)[C@H](Cc1c[nH]c2ccccc12)NC(=O)[C@H](CCC(N)=O)NC(=O)[C@H](N)Cc1ccc(O)cc1)C(C)C)c1ccc(Cl)cc1)C(N)=O` [NSC_0], the values for the Ki (in assay [1]; at Neuromedin-B receptor; in assay [2]) were 1860 nM, 7200 nM and 8.2 nM, respectively.
